# In PubChem BioAssay AID743350 (Broad Institute, 2014):
# The source made the active and inactive calls. No rule for the calls is given here.
# System: M. tuberculosis wild type, biotin-free medium, growth
# Assay: growth inhibition of wild-type M. tuberculosis, biotin-free medium, single point, dry powder (AID 743350)
row,SMILES,IC90
1,CN1c2ccc(-c3ccc(F)cc3)cc2[C@H]2[C@H](CCN2C(=O)Cc2ccccn2)[C@H]1CO,> 50 µM (inactive)
2,CN1c2ccc(-c3cccc(F)c3)cc2[C@H]2[C@H](CCN2C(=O)Nc2ccccc2F)[C@H]1CO,> 50 µM (inactive)
3,CC(C)NC(=O)N1CC[C@@H]2[C@@H](CO)N(C)c3ccc(-c4ccc(F)cc4)cc3[C@@H]21,> 50 µM (inactive)
4,CC(=O)c1ccc(N2CC3(CN(C(=O)c4ccc5c(c4)OCO5)C3)C2)cc1,> 50 µM (inactive)
5,CC(=O)c1ccc(NCCNC(=O)c2ccc3c(c2)OCO3)cc1,> 50 µM (inactive)
6,COc1ccccc1C(=O)N1CCN(c2ccc(C(C)=O)cc2)CC1,> 50 µM (inactive)
7,CN1c2ccc(-c3cccc(F)c3)cc2[C@H]2[C@H](CCN2C(=O)Cc2cccnc2)[C@H]1CO,> 50 µM (inactive)
8,CC(C)NC(=O)N1CC[C@@H]2[C@@H](CO)N(C)c3ccc(-c4cccc(F)c4)cc3[C@@H]21,> 50 µM (inactive)
9,CN1c2ccc(-c3cccc(F)c3)cc2[C@@H]2[C@@H](CCN2C(=O)c2ccc3c(c2)OCO3)[C@@H]1CO,> 50 µM (inactive)
10,CNS(=O)(=O)c1ccc(N2CCN(C(=O)c3ccc4c(c3)OCO4)CC2)cc1,> 50 µM (inactive)
11,CN(C)C(=O)c1ccc(N2CCN(C(=O)c3ccc4c(c3)OCO4)CC2)cc1,> 50 µM (inactive)
12,COc1ccc(NC(=O)N2CC[C@@H]3[C@@H](CO)N(C)c4ccc(-c5cccc(F)c5)cc4[C@@H]32)cc1,> 50 µM (inactive)
13,COc1ccccc1NC(=O)N1CC[C@@H]2[C@@H](CO)N(C)c3ccc(-c4ccc(F)cc4)cc3[C@@H]21,> 50 µM (inactive)
14,CCC(=O)N1CC[C@@H]2[C@@H](CO)N(C)c3ccc(-c4ccc(F)cc4)cc3[C@@H]21,> 50 µM (inactive)
15,CN1c2ccc(-c3cccc(F)c3)cc2[C@H]2[C@H](CCN2C(=O)CCCCCCN)[C@H]1CO,> 50 µM (inactive)
16,CC(=O)c1ccc(N2CCN(C(=O)c3ccccc3F)CC2)cc1,> 50 µM (inactive)
17,CN1c2ccc(-c3ccc(F)cc3)cc2[C@H]2[C@H](CCN2C(=O)Nc2ccc(F)cc2)[C@H]1CO,> 50 µM (inactive)

row,SMILES,IC90
1,CC(=O)c1ccc(N2CCN(C(=O)c3ccc4c(c3)OCO4)CC2)cc1,39.7 µM
2,COCC(=O)N1CC[C@@H]2[C@@H](CO)N(C)c3ccc(-c4cccc(F)c4)cc3[C@@H]21,> 50 µM (inactive)
3,COC(=O)CCCCCCC(=O)N1CC[C@@H]2[C@@H](CO)N(C)c3ccc(-c4cccc(F)c4)cc3[C@@H]21,> 50 µM (inactive)
4,CC(=O)c1ccc(N2CCN(C(=O)c3ccccc3Cl)CC2)cc1,> 50 µM (inactive)
5,CCCCCCCC(=O)N1CC[C@@H]2[C@@H](CO)N(C)c3ccc(-c4cccc(F)c4)cc3[C@@H]21,> 50 µM (inactive)
6,CN1c2ccc(-c3ccc(F)cc3)cc2[C@H]2[C@H](CCN2C(=O)Cc2cccnc2)[C@H]1CO,> 50 µM (inactive)
7,CN1c2ccc(-c3ccc(F)cc3)cc2[C@H]2[C@H](CCN2C(=O)Nc2cc(F)ccc2F)[C@H]1CO,> 50 µM (inactive)
8,COc1ccccc1NC(=O)N1CC[C@@H]2[C@@H](CO)N(C)c3ccc(-c4cccc(F)c4)cc3[C@@H]21,> 50 µM (inactive)
9,CN1c2ccc(-c3cccc(F)c3)cc2[C@H]2[C@H](CCN2C(=O)Cc2ccccc2)[C@H]1CO,> 50 µM (inactive)
10,CCCNC(=O)N1CC[C@@H]2[C@@H](CO)N(C)c3ccc(-c4ccc(F)cc4)cc3[C@@H]21,> 50 µM (inactive)
11,COc1cccc(NC(=O)N2CC[C@@H]3[C@@H](CO)N(C)c4ccc(-c5cccc(F)c5)cc4[C@@H]32)c1,> 50 µM (inactive)
12,CNC(=O)c1ccc(N2CCN(C(=O)c3ccc4c(c3)OCO4)CC2)cc1,> 50 µM (inactive)
13,CN1c2ccc(-c3cccc(F)c3)cc2[C@H]2[C@H](CCN2C(=O)CCCCCCC(=O)O)[C@H]1CO,> 50 µM (inactive)
14,COc1ccc(NC(=O)N2CC[C@@H]3[C@@H](CO)N(C)c4ccc(-c5ccc(F)cc5)cc4[C@@H]32)cc1,> 50 µM (inactive)
15,CN1c2ccc(-c3cccc(F)c3)cc2[C@@H]2[C@@H](CCN2C(=O)c2ccc3c(c2)OCO3)[C@H]1CO,> 50 µM (inactive)
16,CN1c2ccc(-c3cccc(F)c3)cc2[C@H]2[C@H](CCN2C(=O)c2ccc3c(c2)OCO3)[C@@H]1CO,> 50 µM (inactive)
17,CC(=O)c1ccc(N2CCN(C(=O)c3ccc4c(c3)OCO4)[C@H](C)C2)cc1,27.3 µM
